In patent US5496947A, “Quinolone carboxylic acid derivatives” (Dong Wha Pharmaceutical Industrial Co., Ltd., priority 1994, dated 1996):
Read-outs that look alike come from different tables or passages of the source.

Columns and labels:
[1] = test system: Proteus vulgaris ATCC 13315; assay: MIC, 2-fold dilution method in micro-well plate, P. vulgaris; assay type: cell-based
Outline: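 Two-fold broth dilution in micro-well plates; compounds tested as hydrochloride salts in water. Bacteria from overnight BHI broth culture at 37 °C inoculated to about (10^5–10^6)/2 cfu/ml final; MIC read after incubation at 37 °C.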

[2] = test system: Streptococcus faecalis ATCC 29212; assay: MIC, 2-fold dilution method in micro-well plate, S. faecalis ATCC 29212; assay type: cell-based; conditions: Enterococcus faecalis; S. faecalis ATCC29212, 37° C.; read-out: Minimum Inhibitory Concentration
Outline: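 Compounds were tested as hydrochloride salts by 2-fold serial dilution in water in micro-well plates. Final inoculum was about (10^5-10^6)/2 cfu/ml from overnight BHI broth culture. MIC was read after culture at 37° C.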

[3] = test system: Shigella sonnei ATCC 25931; assay: MIC, 2-fold dilution method in micro-well plate, S. sonnei; assay type: cell-based; conditions: S. sonnei ATCC25931, 37° C., read-out: Minimum Inhibitory Concentration
Outline: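 Broth microdilution with 2-fold serial dilutions of compounds as hydrochloride salts in water. Overnight BHI culture of S. sonnei at 37° C added to give about (10^5-10^6)/2 cfu/ml per well. MIC read after incubation at 37° C.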

[4] = Pharmacokinetic properties in ICR mouse, oral and subcutaneous, Bio-Assay (Agar well method); assay type: in vivo; conditions: 40 mg/kg, average of four tests; for AUC / Cmax / Tmax / bioavailability / half-life: blood; for dose excreted: urine, read-out: Urine Recovery
Protocol: The pharmacokinetic properties are tested by orally administrating and subcutaneously injecting a test compound and a substance for control to a ICR Mouse with 22 g±10% weight, drawing blood after 10, 20, 30, 45, 60, 90, 120, 150, 180 and […] and analyzed by Bio-Assay (Agar well method).

[5] = test system: Escherichia coli ATCC 25922; assay: MIC, 2-fold dilution method in micro-well plate, E. coli; assay type: cell-based
Outline: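 Broth two-fold microdilution of hydrochloride salts in water against E. coli ATCC 25922 grown overnight in BHI at 37° C. Final inoculum about (10^5 -10^6)/2 cfu/ml; after incubation at 37° C, MIC was recorded.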

[6] = test system: Pseudomonas aeruginosa ATCC 27853; assay: MIC, 2-fold dilution method in micro-well plate, P. aeruginosa; assay type: cell-based; conditions: P. aerugirnosa ATCC27853, 37° C., read-out: Minimum Inhibitory Concentration
Outline: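 MIC was recorded after 37° C incubation of bacteria with serial two-fold dilutions of compound. Bacteria came from an overnight 37° C BHI culture; the final inoculum was about (10^5-10^6)/2 cfu/ml. Compounds were tested as hydrochloride salts diluted in sterile water from a 10 mg/ml stock.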

[7] = test system: Citrobacter freundii ATCC 8090; assay: MIC, 2-fold dilution method in micro-well plate, C. freundii; assay type: cell-based
Outline: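 Broth 2-fold microdilution; compounds tested as hydrochloride salts in sterile water. Inoculum from overnight BHI broth culture at 37° C., final about (10^5-10^6)/2 cfu/ml per well; MIC read after incubation at 37° C.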

Enterobacter cloacae = assay: MIC, 2-fold dilution method in micro-well plate, E. cloacae; assay type: cell-based; conditions: read-out: Minimum Inhibitory Concentration
[8] = test system: Enterobacter aerogenes ATCC 13048; assay: MIC, 2-fold dilution method in micro-well plate, E. aerogenes; assay type: cell-based; conditions: Klebsiella aerogenes
Outline: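 Two-fold broth microdilution of hydrochloride salts dissolved in sterile water (10 mg/ml stock). Inoculum from overnight BHI culture at 37° C, about (10^5–10^6)/2 cfu/ml final in well. MIC read after incubation at 37° C.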

[9] = test system: Serratia marcescens ATCC 8100; assay: MIC, 2-fold dilution method in micro-well plate, S. marcescens; assay type: cell-based
Outline: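 Broth microdilution (2-fold series) of hydrochloride salts in water; S. marcescens from overnight BHI culture at 37 °C inoculated to about (10^5-10^6)/2 cfu/ml. MIC read after cultivation at 37 °C.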

[10] = test system: Acinetobacter calcoaceticus; assay: MIC, 2-fold dilution method in micro-well plate, A. calcoaceticus; assay type: cell-based
LD50, oral, mice = conditions: mouse, in vivo
[11] = test system: Streptococcus pneumoniae ATCC 6303; assay: MIC, 2-fold dilution method in micro-well plate, S. pneumoniae; assay type: cell-based; conditions: S. pneuinoniae ATCC6303, 37° C., read-out: Minimum Inhibitory Concentration
Outline: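 MIC by 2-fold serial microdilution of compounds as hydrochloride salts in water, against a BHI-grown overnight culture. Final inoculum was about (10^5–10^6)/2 cfu/ml. Plates were incubated at 37° C before the minimum inhibitory concentration was read.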

[12] = test system: Klebsiella pneumoniae ATCC 13883; assay: MIC, 2-fold dilution method in micro-well plate, K. pneumoniae; assay type: cell-based
Outline: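 Two-fold broth dilution in micro-wells of compound as hydrochloride salt in water. Overnight BHI culture at 37 °C inoculated to about (10^5–10^6)/2 cfu/ml final. MIC read after incubation at 37 °C.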

[13] = test system: Streptococcus pyrogens ATCC 19615; assay: MIC, 2-fold dilution method in micro-well plate, S. pyrogens; assay type: cell-based; conditions: S. pyrogenes ATCC19615, 37° C., read-out: Minimum Inhibitory Concentration
Outline: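 Inoculum from overnight 37° C brain-heart infusion culture gave roughly (10^5-10^6)/2 cfu/mL per well against two-fold serial dilutions of hydrochloride-salt compound in water. Lowest concentration inhibiting growth after 37° C incubation taken as MIC.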

[14] = test system: Haemophilus influenza ATCC 35056; assay: MIC, 2-fold dilution method in micro-well plate, H. influenzae; assay type: cell-based; conditions: H. influenzae ATCC35056, 37° C.; read-out: Minimum Inhibitory Concentration
Outline: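 MIC by 2-fold broth microdilution; compounds as hydrochloride salts in sterile water (10 mg/ml stock). Overnight BHI culture inoculated at about (10^5-10^6)/2 cfu/ml final; MIC read after cultivation at 37° C.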

[15] = test system: Shigella flexneri ATCC 12022; assay: MIC, 2-fold dilution method in micro-well plate, S. flexneri; assay type: cell-based; conditions: S. flexneri ATCC12022, 37° C., read-out: Minimum Inhibitory Concentration
Outline: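 Two-fold broth dilution in microwell plates; compounds as hydrochloride salts in sterile water. Overnight BHI-broth culture at 37 °C used as inoculum, giving about (10^5–10^6)/2 cfu/ml per well. MIC read after cultivation at 37 °C.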

[16] = test system: Salmonella typhimurium ATCC 14028; assay: MIC, 2-fold dilution method in micro-well plate, S. typhimurium; assay type: cell-based; conditions: Salmonella enterica, read-out: Minimum Inhibitory Concentration
Outline: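 Twofold broth microdilution with overnight BHI culture at 37 °C; inoculum about (10^5-10^6)/2 cfu/ml in wells. Compounds tested as hydrochloride salts from 10 mg/ml aqueous stock; MIC read after incubation at 37 °C.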

[17] = test system: Streptococcus faecalis ATCC 19433; assay: MIC, 2-fold dilution method in micro-well plate, S. faecalis ATCC 19433; assay type: cell-based; conditions: Enterococcus faecalis; S. faecalis ATCC19433, 37° C.; read-out: Minimum Inhibitory Concentration
Outline: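 Broth microdilution (2-fold series) with test compounds as hydrochloride salts in sterile water; overnight BHI culture at 37 °C inoculated to about (10^5-10^6)/2 cfu/ml per well. MIC read after incubation at 37 °C.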

[18] = ATCC13315, read-out: Minimum Inhibitory Concentration
[19] = ATCC25922, read-out: Minimum Inhibitory Concentration
[20] = ATCC8090, read-out: Minimum Inhibitory Concentration
[21] = E. cloacae ATCC23355 (as in tables), 37° C.
[22] = ATCC13048, read-out: Minimum Inhibitory Concentration
[23] = S. marcescens ATCC8100, 37° C., read-out: Minimum Inhibitory Concentration
[24] = ATCC13883, read-out: Minimum Inhibitory Concentration
[25] = S. typhisurium ATCC14028, 37° C.
[26] = P. vulgaris ATCC13315, 37° C., read-out: Minimum Inhibitory Concentration
[27] = E. aerogenes ATCC13048, 37° C., read-out: Minimum Inhibitory Concentration

Row | SMILES | MIC [2] | MIC [3] | AUC ([4]; po, P.O) | Cmax ([4]; po, P.O) | Tmax ([4]; po, P.O) | bioavailability ([4]; po, P.O) | half-life ([4]; po, P.O) | AUC ([4]; sc, S.C) | Cmax ([4]; sc, S.C) | Tmax ([4]; sc, S.C) | half-life ([4]; sc, S.C) | dose excreted ([4]; po, P.O) | dose excreted ([4]; sc, S.C) | MIC [5, 19] | MIC [6] | MIC [11] | MIC [13] | MIC [14] | MIC [15] | MIC [17] | further results
1 | CN1CCN(c2nc3c(cc2F)c(=O)c(C(=O)O)cn3-c2ccc(F)cn2)CC1.Cl [Example 13, 1-(5-fluoro-2-pyridyl)-6-fluoro-7-(4-methyl-1-piperazinyl)-1,4-dihydro-4-oxo-1,8-naphthyridine-3-carboxylic acid hydrochloride] | 5 µg/mL | 0.156 µg/mL | 41000 ng·h/mL | 11500 ng/mL | 1.12 h | 74% | 8.07 h | 55500 ng·h/mL | 8000 ng/mL | 0.81 h | 11.5 h | 19.6% | 30.8% | 0.156 µg/mL | 1.25 µg/mL | 2.5 µg/mL | 5 µg/mL | 0.625 µg/mL | 0.156 µg/mL | 5 µg/mL | MIC [1, 18]: 0.625 µg/mL; MIC [7, 20]: 0.156 µg/mL; MIC (Enterobacter cloacae; [21]): 0.313 µg/mL; MIC [8, 22]: 0.625 µg/mL; MIC [9, 23]: 0.313 µg/mL; MIC ([10]; A. calcoaceticus ATCC8090 (as in tables), 37° C., read-out: Minimum Inhibitory Concentration): 0.313 µg/mL; LD50 (LD50, oral, mice): ~1000 mg/kg; MIC [12, 24]: 0.625 µg/mL; MIC [16, 25]: 0.313 µg/mL
2 | CN1CCN(c2cc3c(cc2F)c(=O)c(C(=O)O)cn3-c2ccc(F)cn2)CC1.Cl [Example 18, 1-(5-fluoro-2-pyridyl)-6-fluoro-7-(4-methyl-1-piperazinyl)-1,4-dihydro-4-oxoquinoline-3-carboxylic acid hydrochloride] | 2.5 µg/mL | 0.625 µg/mL | 42200 ng·h/mL | 9180 ng/mL | 0.94 h | 68.6% | 3.44 h | 63400 ng·h/mL | 19600 ng/mL | 1 h | 3.15 h | 28.1% | 39.9% | 0.625 µg/mL | 1.25 µg/mL | 5 µg/mL | 5 µg/mL | 0.625 µg/mL | 0.625 µg/mL | 5 µg/mL | MIC [1, 26]: 0.313 µg/mL; MIC [7, 20]: 0.625 µg/mL; MIC (Enterobacter cloacae): 0.625 µg/mL; MIC [8, 27]: 0.25 µg/mL; MIC [9, 23]: 1.25 µg/mL; MIC [10, 20]: 0.625 µg/mL; LD50 (LD50, oral, mice): > 3000 mg/kg; MIC [12, 24]: 0.625 µg/mL; MIC [16, 25]: 1.25 µg/mL
3 | Cc1c(F)c(N2CCN(C)CC2)cc2c1c(=O)c(C(=O)O)cn2-c1ccc(F)cn1.Cl [Example 28, 5-methyl-7-(4-methyl-1-piperazinyl)-1-(5-fluoro-2-pyridyl)-6-fluoro-1,4-dihydro-4-oxoquinoline-3-carboxylic acid hydrochloride] | 5 µg/mL | 1.25 µg/mL | 62400 ng·h/mL | 6360 ng/mL | 0.87 h | 81.3% | 7.57 h | 76100 ng·h/mL | 6940 ng/mL | 1 h | 7.26 h | 25.2% | 13.4% | 1.25 µg/mL | 1.25 µg/mL | 10 µg/mL | 10 µg/mL | 0.313 µg/mL | 0.625 µg/mL | 10 µg/mL | MIC [1, 18]: 0.625 µg/mL; MIC ([7]; C. freundii ATCC8090, 37° C., read-out: Minimum Inhibitory Concentration): 2.5 µg/mL; MIC (Enterobacter cloacae): 0.625 µg/mL; MIC [8, 22]: 0.625 µg/mL; MIC ([9]; ATCC8100, read-out: Minimum Inhibitory Concentration): 1.25 µg/mL; MIC [10, 20]: 1.25 µg/mL; MIC [12, 24]: 1.25 µg/mL; MIC [16]: 1.25 µg/mL
4 | Cc1c(F)c(N2CCNC(C)C2)cc2c1c(=O)c(C(=O)O)cn2-c1ccc(F)cn1.Cl (stereo not shown) [Example 29, 5-methyl-7-(3-methyl-1-piperazinyl)-1-(5-fluoro-2-pyridyl)-6-fluoro-1,4-dihydro-4-oxoquinoline-3-carboxylic acid hydrochloride] | 5 µg/mL | 0.625 µg/mL |  |  |  |  |  | 32600 ng·h/mL | 8340 ng/mL | 1.25 h | 2.31 h | 9.35% | 12.8% |  | 1.25 µg/mL | 10 µg/mL | 10 µg/mL | 0.625 µg/mL | 0.625 µg/mL | 5 µg/mL | MIC [1, 26]: 1.25 µg/mL; MIC ([5]; E. coli ATCC25922, 37° C., read-out: Minimum Inhibitory Concentration): 1.25 µg/mL; MIC [7, 20]: 0.625 µg/mL; MIC (Enterobacter cloacae; [21]): 0.313 µg/mL; MIC [8, 27]: 0.313 µg/mL; MIC [9, 23]: 1.25 µg/mL; MIC [10, 20]: 0.625 µg/mL; MIC ([12]; K. pneumoniae ATCC13883, 37° C., read-out: Minimum Inhibitory Concentration): 1.25 µg/mL; MIC [16]: 0.625 µg/mL
